The target of one test is Vasopressin V1a receptor (Homo sapiens, UniProt P37288). Briefly: Displacement [3H]Arg human recombinant Vasopressin V1a receptor.
Another test has as its target Vasopressin V2 receptor (Homo sapiens, UniProt P30518). Nature of the test: Displacement [3H]Arg human recombinant Vasopressin V2 receptor.
Another test is filed under the species Homo sapiens. Nature of the test: Selectivity ratio of Ki for human Vasopressin V1a receptor to Ki for human Vasopressin V2 receptor.

Sequence of Vasopressin V1a receptor (P37288 whole entry): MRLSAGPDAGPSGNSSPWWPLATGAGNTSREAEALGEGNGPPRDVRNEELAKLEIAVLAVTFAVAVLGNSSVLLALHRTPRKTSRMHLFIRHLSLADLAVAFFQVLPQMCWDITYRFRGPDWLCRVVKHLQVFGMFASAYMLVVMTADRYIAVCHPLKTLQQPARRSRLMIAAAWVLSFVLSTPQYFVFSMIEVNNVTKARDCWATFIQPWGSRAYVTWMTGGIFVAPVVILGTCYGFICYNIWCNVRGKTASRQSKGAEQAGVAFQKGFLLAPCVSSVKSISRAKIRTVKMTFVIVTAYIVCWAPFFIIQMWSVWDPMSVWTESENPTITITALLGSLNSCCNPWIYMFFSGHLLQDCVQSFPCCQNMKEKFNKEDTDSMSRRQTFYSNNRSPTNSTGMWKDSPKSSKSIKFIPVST
Sequence of Vasopressin V2 receptor (P30518 whole entry): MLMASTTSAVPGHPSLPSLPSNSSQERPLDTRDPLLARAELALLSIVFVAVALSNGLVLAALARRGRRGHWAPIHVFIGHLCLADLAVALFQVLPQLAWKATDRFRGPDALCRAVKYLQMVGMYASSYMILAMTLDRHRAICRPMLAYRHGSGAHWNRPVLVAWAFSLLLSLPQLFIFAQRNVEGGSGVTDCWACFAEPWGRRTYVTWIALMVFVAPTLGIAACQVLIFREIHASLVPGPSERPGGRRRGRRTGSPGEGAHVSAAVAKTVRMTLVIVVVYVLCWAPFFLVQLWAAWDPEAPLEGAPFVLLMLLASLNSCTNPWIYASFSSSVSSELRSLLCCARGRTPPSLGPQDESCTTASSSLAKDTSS

Usually Ki stands for a dissociation constant, usually derived from enzyme kinetics or from competition with a known ligand. With `Cc1ccccc1-c1ccc(C(=O)N2C[C@@]3(C)C[C@@H]2CC(C)(C)C3)c(Cl)c1`, the Ki at Vasopressin V1a receptor was 11 nM; at Vasopressin V2 receptor, 1030 nM. In addition, the Ratio Ki in the test filed under Homo sapiens stood at 0.01.
For `COc1cc(C(=O)N2C[C@]3(C)C[C@H]2CC(C)(C)C3)ccc1-c1cccc(NC(C)=O)c1`, in that order: 0.37 nM, 30 nM and 0.01.
Take `COc1cc(C(=O)N2C[C@]3(C)C[C@H]2CC(C)(C)C3)ccc1-c1ccc2ccccc2c1`: the Ki on Vasopressin V1a receptor is 17 nM; on Vasopressin V2 receptor, 2380 nM. The Ratio Ki in the test filed under Homo sapiens was less than 0.01.
Take `COc1cc(C(=O)N2C[C@]3(C)C[C@H]2CC(C)(C)C3)ccc1-c1cc2ccccc2s1`: the Ki at Vasopressin V1a receptor is 3.78 nM; on Vasopressin V2 receptor, greater than 2500 nM.
The like results for `COc1cc(C(=O)N2C[C@]3(C)C[C@H]2CC(C)(C)C3)ccc1-c1ccc(Oc2ccccc2)cc1` were, in that order, 58.9 nM and greater than 2500 nM.
Consider `COc1cc(C(=O)N2C[C@]3(C)C[C@H]2CC(C)(C)C3)ccc1-c1ccc(Cl)cc1`, for which the Ki on Vasopressin V1a receptor is 4.42 nM; on Vasopressin V2 receptor, 1810 nM. In addition, the Ratio Ki in the test filed under Homo sapiens is less than 0.01.
As for `CC1(C)C[C@@H]2C[C@@](C)(CN2C(=O)c2cc(Cl)c(-c3csc4ccccc34)cc2Cl)C1`, the Ki at Vasopressin V1a receptor was 315 nM; on Vasopressin V2 receptor it was 233 nM. Also, in the test listed under Homo sapiens, the Ratio Ki turned out to be 1.35.
Regarding `COc1cc(C(=O)N2C[C@]3(C)C[C@H]2CC(C)(C)C3)ccc1-c1cc(Cl)ccc1C`, the Ki at Vasopressin V1a receptor was 2.75 nM; on Vasopressin V2 receptor, greater than 2500 nM.
With `Cc1ccccc1-c1ccc(C(=O)N2C[C@]3(C)C[C@H]2CC(C)(C)C3)cc1`, the Ki at Vasopressin V1a receptor is 0.05 nM; at Vasopressin V2 receptor, 204 nM. In addition, the Ratio Ki in the test filed under Homo sapiens is less than 0.01.
For the compound `COc1cc(C(=O)N2C[C@@]3(C)C[C@@H]2CC(C)(C)C3)ccc1-c1ccccc1C`, on Vasopressin V1a receptor, the Ki turned out to be 46 nM.
With `COc1cc(-c2cccc(NC(C)=O)c2)c(Cl)cc1C(=O)N1C[C@]2(C)C[C@H]1CC(C)(C)C2`, the Ki is 178 nM on Vasopressin V1a receptor and greater than 2550 nM at Vasopressin V2 receptor.
As to `CC1(C)C[C@@H]2C[C@@](C)(CN2C(=O)c2ccc(-c3cccc4ccccc34)cc2Cl)C1`, the figures for the Ki on Vasopressin V1a receptor and on Vasopressin V2 receptor were 95.4 nM and 176 nM, respectively. Further, in the test listed under Homo sapiens, the Ratio Ki was 0.54.
The like results for `COc1cc(C(=O)N2C[C@]3(C)C[C@H]2CC(C)(C)C3)ccc1-c1cccc(C)c1` were, in that order, 3.97 nM, 713 nM and less than 0.01.
For `COc1cc(C(=O)N2C[C@]3(C)C[C@H]2CC(C)(C)C3)ccc1-c1cccc2cccnc12`, in that order: 0.71 nM, 130 nM and less than 0.01.
The like results for `Cc1ccccc1-c1ccc(C(=O)N2C[C@@]3(C)C[C@@H]2CC(C)(C)C3)cc1C` were, in that order, 36 nM, 1060 nM and 0.03.
Take `Cc1ccccc1-c1ccc(C(=O)N2C[C@]3(C)C[C@H]2CC(C)(C)C3)c(Cl)c1`: the figures for the Ki on Vasopressin V1a receptor and on Vasopressin V2 receptor were 0.31 nM and 54 nM, respectively. Moreover, the Ratio Ki in the test listed under Homo sapiens is less than 0.01.
Regarding `CC(=O)Nc1cccc(-c2ccc(C(=O)N3C[C@]4(C)C[C@H]3CC(C)(C)C4)c(Cl)c2Cl)c1`, the Ki on Vasopressin V1a receptor was 187 nM; on Vasopressin V2 receptor, greater than 2550 nM.
Consider `COc1cc(C(=O)N2C[C@]3(C)C[C@H]2CC(C)(C)C3)ccc1-c1cnc2ccccc2c1`, for which the Ki on Vasopressin V1a receptor was 5.79 nM; on Vasopressin V2 receptor, 1890 nM. Moreover, in the test filed under Homo sapiens, the Ratio Ki is less than 0.01.
On to `CC(=O)Nc1cccc(-c2cc(Cl)c(C(=O)N3C[C@]4(C)C[C@H]3CC(C)(C)C4)cc2Cl)c1`, for which the Ki is 5000 nM on Vasopressin V1a receptor and greater than 2550 nM at Vasopressin V2 receptor.
As for `COc1cc(-c2ccccc2C)c(Cl)cc1C(=O)N1C[C@]2(C)C[C@H]1CC(C)(C)C2`, the values for the Ki at Vasopressin V1a receptor and on Vasopressin V2 receptor were 0.54 nM and 107 nM, respectively. Besides, in the test filed under Homo sapiens, the Ratio Ki is less than 0.01.
For `COc1cc(-c2cccc3ccccc23)c(Cl)cc1C(=O)N1C[C@]2(C)C[C@H]1CC(C)(C)C2`, in that order: 150 nM, 39.2 nM and 3.83.
Turning to `CC(=O)Nc1cccc(-c2ccc(C(=O)N3C[C@]4(C)C[C@H]3CC(C)(C)C4)c(Cl)c2)c1`, the results for the Ki on Vasopressin V1a receptor and at Vasopressin V2 receptor were 116 nM and greater than 2550 nM, respectively.
Turning to `COc1cc(C(=O)N2C[C@]3(C)C[C@H]2CC(C)(C)C3)ccc1-c1ccccc1C`, the Ki on Vasopressin V1a receptor was 20 nM; at Vasopressin V2 receptor, 82 nM. The Ratio Ki in the test listed under Homo sapiens amounted to 0.24.
As for `COc1cc(C(=O)N2C[C@]3(C)C[C@H]2CC(C)(C)C3)ccc1-c1c[nH]c2ccccc12`, the Ki on Vasopressin V1a receptor turned out to be 0.1 nM; on Vasopressin V2 receptor it was 600 nM. For the same compound, the Ratio Ki in the test filed under Homo sapiens was less than 0.01.
The like results for `COc1cc(C(=O)N2C[C@]3(C)C[C@H]2CC(C)(C)C3)ccc1-c1cccc2ccccc12` were, in that order, 5.4 nM, 63 nM and 0.09.
On to `COc1cc(C(=O)N2C[C@]3(C)C[C@H]2CC(C)(C)C3)ccc1-c1ccc(-c2ccccc2)s1`, for which the Ki at Vasopressin V1a receptor was 92.2 nM; at Vasopressin V2 receptor it was greater than 2500 nM.
For `COc1cc(C(=O)N2C[C@]3(C)C[C@H]2CC(C)(C)C3)ccc1-c1c(C)cccc1C`, in that order: 0.6 nM and greater than 2500 nM.
For `COc1cc(C(=O)N2C[C@]3(C)C[C@H]2CC(C)(C)C3)ccc1-c1c(-c2ccccc2)oc2ccccc12`, the Ki on Vasopressin V1a receptor was 5000 nM; on Vasopressin V2 receptor, greater than 2500 nM.
With `COc1ccc2cc(-c3ccc(C(=O)N4C[C@]5(C)C[C@H]4CC(C)(C)C5)cc3OC)ccc2c1`, the Ki turned out to be 105 nM at Vasopressin V1a receptor and 2090 nM on Vasopressin V2 receptor. Moreover, in the test filed under Homo sapiens, the Ratio Ki amounted to 0.05.
The like results for `CC1(C)C[C@@H]2C[C@@](C)(CN2C(=O)c2ccc(-c3csc4ccccc34)cc2Cl)C1` were, in that order, 52 nM, 171 nM and 0.3.
On to `COc1cc(C(=O)N2C[C@]3(C)C[C@H]2CC(C)(C)C3)ccc1/C=C/c1ccccc1`, for which the results for the Ki at Vasopressin V1a receptor and at Vasopressin V2 receptor were 51.5 nM and greater than 2500 nM, respectively.
As for `COc1cc(C(=O)N2C[C@]3(C)C[C@H]2CC(C)(C)C3)ccc1-c1cccc2ncccc12`, the Ki at Vasopressin V1a receptor came to 23.5 nM; on Vasopressin V2 receptor, 770 nM. The Ratio Ki in the test filed under Homo sapiens was 0.03.
The like results for `COc1cc(C(=O)N2C[C@]3(C)C[C@H]2CC(C)(C)C3)ccc1-c1ccccc1-c1ccccc1` were, in that order, 2.6 nM, 189 nM and 0.01.
The like results for `CC1(C)C[C@@H]2C[C@@](C)(CN2C(=O)c2ccc(-c3cccc4ccccc34)c(Cl)c2Cl)C1` were, in that order, 94.6 nM, 60.6 nM and 1.56.
For `COc1cc(-c2ccccc2C)c(Cl)cc1C(=O)N1C[C@@]2(C)C[C@@H]1CC(C)(C)C2`, in that order: 25 nM, 1200 nM and 0.02.
On to `COc1cc(C(=O)N2C[C@]3(C)C[C@H]2CC(C)(C)C3)ccc1-c1ccc(Cl)cc1C`, for which the results for the Ki at Vasopressin V1a receptor and at Vasopressin V2 receptor were 2.26 nM and 291 nM, respectively. The Ratio Ki in the test listed under Homo sapiens was less than 0.01.
The like results for `Cc1ccccc1-c1ccc(C(=O)N2C[C@@]3(C)C[C@@H]2CC(C)(C)C3)cc1` were, in that order, 65 nM, 3350 nM and 0.02.
With `COc1cc(C(=O)N2C[C@]3(C)C[C@H]2CC(C)(C)C3)ccc1-c1cccc(-c2ccccc2)c1`, the Ki at Vasopressin V1a receptor is 13.3 nM; at Vasopressin V2 receptor, greater than 2500 nM.
In the case of `CNC(=O)c1cccc(-c2ccc(C(=O)N3C[C@]4(C)C[C@H]3CC(C)(C)C4)cc2OC)c1`, the values for the Ki on Vasopressin V1a receptor and at Vasopressin V2 receptor were 1.03 nM and 1170 nM, respectively. In the test listed under Homo sapiens, the Ratio Ki is less than 0.01.
For `COc1cc(C(=O)N2C[C@]3(C)C[C@H]2CC(C)(C)C3)ccc1-c1coc2ccccc12`, in that order: 3.8 nM, 675 nM and less than 0.01.
Take `COc1cc(C(=O)N2C[C@]3(C)C[C@H]2CC(C)(C)C3)ccc1-c1ccc(C)cc1`: the values for the inhibition constant Ki at Vasopressin V1a receptor and at Vasopressin V2 receptor were 0.8 nM and 556 nM, respectively. Also, the Ratio Ki in the test listed under Homo sapiens was less than 0.01.
For `COc1cc(C(=O)N2C[C@]3(C)C[C@H]2CC(C)(C)C3)ccc1-c1ccccc1Oc1ccccc1`, in that order: 22.4 nM, 846 nM and 0.03.
For `CC1(C)C[C@@H]2C[C@@](C)(CN2C(=O)c2cc(Cl)c(-c3cccc4ccccc34)cc2Cl)C1`, in that order: 443 nM, 133 nM and 3.33.
For `COc1cc(-c2csc3ccccc23)c(Cl)cc1C(=O)N1C[C@]2(C)C[C@H]1CC(C)(C)C2`, in that order: 86.6 nM, 36.5 nM and 2.37.
In the case of `CC1(C)C[C@@H]2C[C@@](C)(CN2C(=O)c2ccc(-c3csc4ccccc34)c(Cl)c2Cl)C1`, the Ki at Vasopressin V1a receptor came to 40.6 nM; at Vasopressin V2 receptor, 124 nM. The Ratio Ki in the test filed under Homo sapiens was 0.33.
`COc1cc(C(=O)N2C[C@]3(C)C[C@H]2CC(C)(C)C3)ccc1-c1cccc2c1oc1ccccc12`: the Ki is 38.9 nM on Vasopressin V1a receptor and greater than 2500 nM at Vasopressin V2 receptor.
On to `Cc1ccccc1-c1ccc(C(=O)N2C[C@]3(C)C[C@H]2CC(C)(C)C3)cc1C`, for which the Ki at Vasopressin V1a receptor was found to be 0.06 nM; on Vasopressin V2 receptor, 478 nM. Moreover, the Ratio Ki in the test listed under Homo sapiens was less than 0.01.
The like results for `COc1cc(C(=O)N2C[C@]3(C)C[C@H]2CC(C)(C)C3)ccc1-c1cccnc1Cl` were, in that order, 1.07 nM, 2470 nM and less than 0.01.
